# Assay results: US20230043863A1, “HETEROAROMATIC DERIVATIVES FOR USE AS REGULATOR, PREPARATION METHOD THEREFOR AND USE THEREOF” (JIANGSU HANSOH PHARMACEUTICAL GROUP CO., LTD., priority 2018, published 2023)
# Key:
# [1] = target: JAK1 (Homo sapiens, UniProt P23458); assay: JAK kinase activity inhibition, TR-FRET (JAK1); type: biochemical; settings: TR-FRET kinase assay
# Procedure, shortened: (§1)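 Steps: compound dilutions added; JAK kinase (0.1-20 nM) in HEPES/MgCl2 buffer added; peptide substrate and ATP mix started the reaction, 0.5-5 h at room temperature; EDTA and labeled antibody added, 1-24 h further. IC50 derived from 620/665 nm signals by four-parameter nonlinear fitting.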
# [2] = target: TYK2 (Homo sapiens, UniProt P29597); assay: JAK kinase activity inhibition, TR-FRET (TYK2); type: biochemical; settings: TR-FRET kinase assay
# Procedure, shortened: as §1
# [3] = test system: JAK-STAT signal pathway of U266 cells; assay: Inhibition of cellular JAK-STAT signal pathway (STAT3 phosphorylation) in U266 cells; type: cell-based, human
# Description: The objective of the test is to test the inhibitory activity of the compound on the cellular JAK-STAT signaling pathway.
# U266 cell line was used in this experiment, by activating the JAK-STAT signaling pathway through INF-a stimulation, the inhibitory activity of the compound on its downstream STAT3 phosphorylation was detected, and the half inhibitory concentration IC50 of the compound on the JAK-STAT signaling pathway activity was obtained.
# 3-12 μL of U266 cell line was spread into the 384-well detection plate, and the number of cells in each well was 100-300 K, followed by addition of 2 μL of the compound solution serially diluted. The plate was incubated for 2 hours with shaking at 350 rpm at room temperature. After 2 hours, 2 μL of INF-a with a final concentration of 1000 U/mL was added. The plate was shaken at room temperature for 15 minutes. 2-5 μL (5×) LANCE Ultra Lysis Buffer 2 solution was added and the plate was shaken at room temperature for 2 hours. After 2 hours, 5 μL of LANCE Ultra Eu-labeled Anti-STAT3 Antibody (PerkinElmer) with a final concentration of 0.5 nM and LANCE Ultra ULight-labeled Anti-STAT3 Antibody (PerkinElmer) with a final concentration of 5 nM were added, and the plate was incubated overnight at room temperature. The fluorescence signal value at 665 nm of each well was measured with the microplate reader, and the inhibition rate was calculated from the fluorescence signal value. According to the inhibition rate of different concentrations, the IC50 of the compound was obtained by curve fitting.
# The percentage inhibition data of the wells treated with the compound was calculated with the positive control wells (DMSO control wells) and negative control wells (no kinase added) on the plate {% inhibition rate=100-[(test compound value-negative control value)]/(Positive control value-negative control value)×100}. IC50 value was calculated by using GraphPad prism to fit the data of different concentrations and corresponding percentage inhibition rates to a 4-parameter non-linear logic formula.
# [4] = Homo sapiens, U-266, INF-a 1000 U/mL stimulation
# JAK1, sequence (P23458 whole entry): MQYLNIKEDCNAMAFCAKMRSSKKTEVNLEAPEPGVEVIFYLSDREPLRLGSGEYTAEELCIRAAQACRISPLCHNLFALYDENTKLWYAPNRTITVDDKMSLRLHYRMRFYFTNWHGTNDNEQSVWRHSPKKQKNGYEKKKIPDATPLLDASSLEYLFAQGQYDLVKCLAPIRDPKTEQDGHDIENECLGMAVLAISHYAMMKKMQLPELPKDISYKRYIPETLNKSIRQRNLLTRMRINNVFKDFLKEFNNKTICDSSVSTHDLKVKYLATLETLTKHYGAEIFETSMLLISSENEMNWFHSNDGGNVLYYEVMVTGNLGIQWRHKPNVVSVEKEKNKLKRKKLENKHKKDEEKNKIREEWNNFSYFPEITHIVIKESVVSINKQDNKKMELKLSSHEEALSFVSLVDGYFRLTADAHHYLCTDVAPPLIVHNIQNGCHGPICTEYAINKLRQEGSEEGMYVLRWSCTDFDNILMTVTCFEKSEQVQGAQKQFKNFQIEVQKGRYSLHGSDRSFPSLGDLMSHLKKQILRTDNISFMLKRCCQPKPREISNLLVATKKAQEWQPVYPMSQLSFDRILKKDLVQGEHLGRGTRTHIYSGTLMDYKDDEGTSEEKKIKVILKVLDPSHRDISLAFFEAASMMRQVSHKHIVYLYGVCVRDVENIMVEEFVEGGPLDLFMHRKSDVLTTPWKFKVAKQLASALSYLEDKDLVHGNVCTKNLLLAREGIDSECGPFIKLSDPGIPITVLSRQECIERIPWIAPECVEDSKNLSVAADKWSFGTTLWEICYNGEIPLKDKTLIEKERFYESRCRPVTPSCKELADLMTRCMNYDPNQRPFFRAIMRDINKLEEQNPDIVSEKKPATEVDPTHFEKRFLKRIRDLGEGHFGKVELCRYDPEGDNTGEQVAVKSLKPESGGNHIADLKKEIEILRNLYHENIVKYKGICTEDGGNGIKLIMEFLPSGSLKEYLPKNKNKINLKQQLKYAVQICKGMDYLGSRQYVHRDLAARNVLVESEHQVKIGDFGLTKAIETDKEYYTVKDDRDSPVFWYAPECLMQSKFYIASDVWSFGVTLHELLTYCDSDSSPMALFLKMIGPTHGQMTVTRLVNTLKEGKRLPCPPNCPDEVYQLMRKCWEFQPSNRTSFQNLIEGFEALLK
# TYK2, sequence (P29597 whole entry): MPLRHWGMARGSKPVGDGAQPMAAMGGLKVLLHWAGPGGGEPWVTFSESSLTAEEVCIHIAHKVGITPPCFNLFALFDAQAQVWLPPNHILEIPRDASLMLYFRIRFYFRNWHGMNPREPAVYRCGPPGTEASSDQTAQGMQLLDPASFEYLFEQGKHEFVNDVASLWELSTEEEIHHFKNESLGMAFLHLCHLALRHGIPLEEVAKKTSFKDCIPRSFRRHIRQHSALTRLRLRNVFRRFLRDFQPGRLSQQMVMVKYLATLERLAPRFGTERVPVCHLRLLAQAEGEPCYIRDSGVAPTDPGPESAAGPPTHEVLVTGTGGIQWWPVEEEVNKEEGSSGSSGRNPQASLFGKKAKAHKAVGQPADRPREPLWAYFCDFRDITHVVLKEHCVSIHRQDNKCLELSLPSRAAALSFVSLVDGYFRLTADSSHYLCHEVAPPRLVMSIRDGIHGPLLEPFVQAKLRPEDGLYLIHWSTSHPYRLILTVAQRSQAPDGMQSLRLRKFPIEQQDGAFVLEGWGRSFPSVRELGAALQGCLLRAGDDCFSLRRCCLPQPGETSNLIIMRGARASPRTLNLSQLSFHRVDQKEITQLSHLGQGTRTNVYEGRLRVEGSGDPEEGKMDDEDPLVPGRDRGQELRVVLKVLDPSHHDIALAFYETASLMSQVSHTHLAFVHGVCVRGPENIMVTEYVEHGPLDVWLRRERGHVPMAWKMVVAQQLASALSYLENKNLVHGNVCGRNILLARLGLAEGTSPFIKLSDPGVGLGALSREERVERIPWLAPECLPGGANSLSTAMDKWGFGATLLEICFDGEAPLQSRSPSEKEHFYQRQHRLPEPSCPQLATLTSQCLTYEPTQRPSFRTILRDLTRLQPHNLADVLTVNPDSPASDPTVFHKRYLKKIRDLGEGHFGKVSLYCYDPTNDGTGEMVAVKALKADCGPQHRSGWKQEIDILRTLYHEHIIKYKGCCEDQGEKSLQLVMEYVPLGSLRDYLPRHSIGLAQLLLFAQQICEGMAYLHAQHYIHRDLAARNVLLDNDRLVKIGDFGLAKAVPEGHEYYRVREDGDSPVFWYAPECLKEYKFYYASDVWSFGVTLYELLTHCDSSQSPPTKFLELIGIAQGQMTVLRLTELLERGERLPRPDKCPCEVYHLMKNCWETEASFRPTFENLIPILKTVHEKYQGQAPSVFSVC
Structure (SMILES),IC50 [1],IC50 [2],"IC50 [3, 4]",IC50 ([3]; INF-a 1000 U/mL stimulation)
"Cc1cc(Nc2nc(N[C@@H]3C[C@H]4CC[C@@H](C3)N4S(=O)(=O)N3CC(C#N)C3)nc3cc(F)ccc23)n[nH]1 [Embodiment 215, 1-(((3-exo)-3-((7-fluoro-4-((5-methyl-1H-pyrazol-3-yl)amino)quinazolin-2-yl)amino)-8-azabicyclo[3.2.1]oct-8-yl)sulfonyl)azetindin-3-formonitrile]",0.12 nM,0.27 nM,24.1 nM,
"Cc1cc(Nc2nc(N[C@@H]3C[C@H]4CC[C@@H](C3)N4S(=O)(=O)N3CC(C#N)C3)nc3cccnc23)n[nH]1 [Embodiment 220, 1-(((3-exo)-3-((4-((5-methyl-1H-pyrazol-3-yl)amino)pyrido[3,2-d]pyrimidin-2-yl)amino)-8-azabicyclo[3.2.1]oct-8-yl)sulfonyl)azetindin-3-formonitrile]",0.67 nM,4.27 nM,10.2 nM,
"CN(c1nc(Nc2cc(CO)[nH]n2)c2ccc(Cl)cc2n1)[C@@H]1C[C@H]2CCC[C@@H](C1)N2CCC#N [Embodiment 235, 3-((3-exo)-3-((7-chloro-4-((5-(hydroxymethyl)-1H-pyrazol-3-yl)amino)quinazolin-2-yl)(methyl)amino)-9-azabicyclo[3.3.1]non-9-yl)propionitrile]",3.33 nM,2.71 nM,44.4 nM,
"Cc1cc(Nc2nc(N(C)[C@@H]3C[C@H]4CC[C@@H](C3)N4S(=O)(=O)N3CC(C#N)C3)nc3sc(C)cc23)n[nH]1 [Embodiment 240, 1-(((3-exo)-3-(methyl(6-methyl-4-((5-methyl-1H-pyrazol-3-yl)amino)thieno[2,3-d]pyrimidin-2-yl)amino)-8-azabicyclo[3.2.1]oct-8-yl)sulfonyl)azetindin-3-formonitrile]",0.49 nM,0.68 nM,14.4 nM,
"Cc1cc(Nc2nc(N(C)[C@@H]3C[C@H]4CC[C@@H](C3)N4C(=O)CN3CCOCC3)nc3sccc23)n[nH]1 [Embodiment 245, 1-((3-exo)-3-(methyl(4-((5-methyl-1H-pyrazol-3-yl)amino)thieno[2,3-d]pyrimidin-2-yl)amino)-8-azabicyclo[3.2.1]oct-8-yl)-2-morpholinoethane-1-one]",2.77 nM,2.76 nM,,16.7 nM
"Cc1cc(Nc2nc(N[C@@H]3C[C@H]4CC[C@@H](C3)N4C(=O)[C@H]3CCCN3)nc3sccc23)n[nH]1 [Embodiment 248, ((3-exo)-3-((4-((5-methyl-1H-pyrazol-3-yl)amino)thieno[2,3-d]pyrimidin-2-yl)amino)-9-azabicyclo[3.3.1]non-9-yl) ((R)-pyrrolidin-2-yl)methanone]",0.44 nM,0.36 nM,43.5 nM,
"Cc1cc(Nc2nc(N[C@@H]3C[C@H]4CCC[C@@H](C3)N4C(=O)[C@H]3COCCN3)nc3sccc23)n[nH]1 [Embodiment 250, ((3-exo)-3-((4-((5-methyl-1H-pyrazol-3-yl)amino)thieno[2,3-d]pyrimidin-2-yl)amino)-9-azabicyclo[3.3.1]non-9-yl)((R)-morpholine-3-yl)methanone]",0.04 nM,0.07 nM,7.3 nM,
"CCNCC(=O)N1[C@@H]2CC[C@H]1C[C@H](Nc1nc(Nc3cc(C)[nH]n3)c3ccsc3n1)C2 [Embodiment 255, 2-(ethylamino)-1-((3-exo)-3-((4-((5-methyl-1H-pyrazol-3-yl)amino)thieno[2,3-d]pyrimidin-2-yl)amino)-8-azabicyclo[3.2.1]oct-8-yl)ethane-1-one]",1.17 nM,2.38 nM,8.67 nM,
"Cc1cc(Nc2nc(N[C@@H]3C[C@H]4CCC[C@@H](C3)N4C(=O)CN3CCN(C)CC3)nc3sccc23)n[nH]1 [Embodiment 258, 1-((3-exo)-3-((4-((5-methyl-1H-pyrazol-3-yl)amino)thieno[2,3-d]pyrimidin-2-yl)amino)-9-azabicyclo[3.3.1]non-9-yl)-2-(4-methylpiperazin-1-yl)ethane-1-one]",0.27 nM,0.61 nM,32.7 nM,
"Cc1cc(Nc2nc(N[C@@H]3C[C@H]4CCC[C@@H](C3)N4C(=O)c3cccnc3)nc3sccc23)n[nH]1 [Embodiment 261, ((3-exo)-3-((4-((5-methyl-1H-pyrazol-3-yl)amino)thieno[2,3-d]pyrimidin-2-yl)amino)-9-azabicyclo[3.3.1]non-9-yl)(pyridin-3-yl)methanone]",0.04 nM,5.58 nM,10.6 nM,
"Cc1cc(Nc2nc(N[C@@H]3C[C@H]4CCC[C@@H](C3)N4C(=O)c3cn(C)cn3)nc3sccc23)n[nH]1 [Embodiment 264, (1-methyl-1H-imidazol-4-yl) ((3-exo)-3-((4-((5-methyl-1H-pyrazol-3-yl)amino)thieno[2,3-d]pyrimidin-2-yl)amino)-9-azabicyclo[3.3.1]non-9-yl)methanone]",0.19 nM,0.48 nM,33.5 nM,
Cc1cc(Nc2nc(N[C@@H]3C[C@H]4CCC[C@@H](C3)N4S(=O)(=O)c3cccnc3)nc3sccc23)n[nH]1 [Embodiment 268],0.21 nM,0.19 nM,42.9 nM,
"Cc1cc(Nc2nc(N[C@@H]3C[C@H]4CCC[C@@H](C3)N4CC(=O)N(C)C)nc3sccc23)n[nH]1 [Embodiment 270, N,N-dimethyl-2-((3-exo)-3-((4-((5-methyl-1H-pyrazol-3-yl)amino)thieno[2,3-d]pyrimidin-2-yl)amino)-9-azabicyclo[3.3.1]non-9-yl)acetamide]",1.22 nM,5.78 nM,14.3 nM,
Cc1cc(Nc2nc(N[C@@H]3C[C@H]4CCC[C@@H](C3)N4Cc3ccccn3)nc3sccc23)n[nH]1 [Embodiment 271],0.05 nM,4.91 nM,1.49 nM,
"Cc1cc(Nc2nc(N[C@@H]3C[C@H]4CCC[C@@H](C3)N4Cc3nccn3C)nc3sccc23)n[nH]1 [Embodiment 272, N^2-((3-exo)-9-((1-methyl-1H-imidazol-2-yl)methyl)-9-azabicyclo[3.3.1]non-3-yl)-N^4-(5-methyl-1H-pyrazol-3-yl)thieno[2,3-d]pyrimidin-2,4-diamine]",0.6 nM,24.7 nM,15.3 nM,
"Cc1cc(Nc2nc(O[C@@H]3C[C@H]4CC[C@@H](C3)N4CCC#N)nc3sccc23)n[nH]1 [Embodiment 279, 3-((3-exo)-3-((4-((5-methyl-1H-pyrazol-3-yl)amino)thieno[2,3-d]pyrimidin-2-yl)oxo)-8-azabicyclo[3.2.1]oct-8-yl)propionitrile]",0.24 nM,0.66 nM,2.2 nM,
Cc1cc(Nc2nc(N[C@@H]3C[C@H]4CC[C@@H](C3)N4S(=O)(=O)N3CC(C#N)C3)nc3ccsc23)n[nH]1 [Embodiment 285],0.17 nM,0.51 nM,42 nM,
"Cc1cc(Nc2nc(N[C@@H]3C[C@H]4CC[C@@H](C3)N4C(=O)CN(C)C)nc3ccsc23)n[nH]1 [Embodiment 287, 2-(dimethylamine)-1-((3-exo)-3-((4-((5-methyl-1H-pyrazol-3-yl)amino)thieno[3,2-d]pyrimidin-2-yl)amino)-8-azabicyclo[3.2.1]oct-8-yl)ethane-1-one]",0.58 nM,4.21 nM,10.5 nM,
"Cc1cc(Nc2nc(N[C@@H]3C[C@H]4CC[C@@H](C3)N4CC(=O)N(C)C)nc3ccsc23)n[nH]1 [Embodiment 293, N,N-dimethyl-2-((3-exo)-3-((4-((5-methyl-1H-pyrazol-3-yl)amino)thieno[3,2-d]pyrimidin-2-yl)amino)-8-azabicyclo[3.2.1]oct-8-yl)acetamide]",3.97 nM,10.8 nM,16.5 nM,
Cc1cc2nc(N[C@@H]3C[C@H]4CCC[C@@H](C3)N4CCC#N)nc(Nc3cc(CO)[nH]n3)c2s1 [Embodiment 294],0.64 nM,0.23 nM,15.3 nM,
"Cc1cc(Nc2nc(N[C@@H]3C[C@@H]4CN(CCC#N)C[C@@H]4C3)nc3sccc23)n[nH]1 [Embodiment 298, 3-(cis-5-((4-((5-methyl-1H-pyrazol-3-yl)amino)thieno[2,3-d]pyrimidin-2-yl)amino)hexahydrocyclopentadieno[c]pyrrole-2(1H)-yl)propionitrile]",0.67 nM,22.8 nM,1.86 nM,
"Cc1cc(Nc2nc(NC3CCN(CCC#N)CC3)nc3ccccc23)n[nH]1 [Embodiment 310, 3-(4-((4-((5-methyl-1H-pyrazol-3-yl)amino)quinazolin-2-yl)amino)piperidin-1-yl)propionitrile]",8.67 nM,0.26 nM,5.41 nM,
